From ChEMBL document CHEMBL1201862, “PubChem BioAssay data set” (2004)
Active and inactive are the calls of the source.

Columns and labels:
[1] = intracellular Trypanosoma cruzi inhibitors in host cells – cell-based, plate reader, cherry-pick samples, set 3, dose response (AID 651818); type: functional;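 also: compounds incubated with infected cells for about four days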
[2] = HepG2 cell cytotoxicity, dose response, cytotoxicity control for Shn3 inhibitor project, CellTiter-Glo, cherry-picked (AID 624134); type: functional, cell-based
[3] = Shn3 3'UTR reporter inhibitors, dose response, cell-based, Clone20 osteoblasts, firefly luciferase, cherry-picked (AID 624132); type: functional;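 also: firefly luciferase luminescence from reporter carrying the Shn3 3'UTR in osteoblasts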
[4] = control 3'UTR Renilla luciferase suppression, dose response, counter-screen for Shn3 inhibitor project, cell-based, Clone20-Shn3RL, cherry-picked (AID 624133); type: functional
INS1 = assay: beta cell apoptosis inhibitors, cytokine rescue, dose response, luminescence, retest (AID 449756); type: functional, cell-based; conditions: Rattus norvegicus;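 also: cell death triggered by IL-1 beta plus TNF-alpha plus IFN-gamma mixture; protective hits raise ATP signal compared with cytokine alone wells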
Fatty acid synthase [5] = target: T1, Fatty acid synthase (Homo sapiens, UniProt P49327); assay: FAS thioesterase domain inhibitors, dose response, biochemical, kinetic fluorescence intensity (AID 624326); type: functional;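 also: rate of fluorescence rise from hydrolysis of a fluorogenic O-methyl fluorescein ester substrate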
T1 sequence (P49327 whole entry, the tested form may be a part): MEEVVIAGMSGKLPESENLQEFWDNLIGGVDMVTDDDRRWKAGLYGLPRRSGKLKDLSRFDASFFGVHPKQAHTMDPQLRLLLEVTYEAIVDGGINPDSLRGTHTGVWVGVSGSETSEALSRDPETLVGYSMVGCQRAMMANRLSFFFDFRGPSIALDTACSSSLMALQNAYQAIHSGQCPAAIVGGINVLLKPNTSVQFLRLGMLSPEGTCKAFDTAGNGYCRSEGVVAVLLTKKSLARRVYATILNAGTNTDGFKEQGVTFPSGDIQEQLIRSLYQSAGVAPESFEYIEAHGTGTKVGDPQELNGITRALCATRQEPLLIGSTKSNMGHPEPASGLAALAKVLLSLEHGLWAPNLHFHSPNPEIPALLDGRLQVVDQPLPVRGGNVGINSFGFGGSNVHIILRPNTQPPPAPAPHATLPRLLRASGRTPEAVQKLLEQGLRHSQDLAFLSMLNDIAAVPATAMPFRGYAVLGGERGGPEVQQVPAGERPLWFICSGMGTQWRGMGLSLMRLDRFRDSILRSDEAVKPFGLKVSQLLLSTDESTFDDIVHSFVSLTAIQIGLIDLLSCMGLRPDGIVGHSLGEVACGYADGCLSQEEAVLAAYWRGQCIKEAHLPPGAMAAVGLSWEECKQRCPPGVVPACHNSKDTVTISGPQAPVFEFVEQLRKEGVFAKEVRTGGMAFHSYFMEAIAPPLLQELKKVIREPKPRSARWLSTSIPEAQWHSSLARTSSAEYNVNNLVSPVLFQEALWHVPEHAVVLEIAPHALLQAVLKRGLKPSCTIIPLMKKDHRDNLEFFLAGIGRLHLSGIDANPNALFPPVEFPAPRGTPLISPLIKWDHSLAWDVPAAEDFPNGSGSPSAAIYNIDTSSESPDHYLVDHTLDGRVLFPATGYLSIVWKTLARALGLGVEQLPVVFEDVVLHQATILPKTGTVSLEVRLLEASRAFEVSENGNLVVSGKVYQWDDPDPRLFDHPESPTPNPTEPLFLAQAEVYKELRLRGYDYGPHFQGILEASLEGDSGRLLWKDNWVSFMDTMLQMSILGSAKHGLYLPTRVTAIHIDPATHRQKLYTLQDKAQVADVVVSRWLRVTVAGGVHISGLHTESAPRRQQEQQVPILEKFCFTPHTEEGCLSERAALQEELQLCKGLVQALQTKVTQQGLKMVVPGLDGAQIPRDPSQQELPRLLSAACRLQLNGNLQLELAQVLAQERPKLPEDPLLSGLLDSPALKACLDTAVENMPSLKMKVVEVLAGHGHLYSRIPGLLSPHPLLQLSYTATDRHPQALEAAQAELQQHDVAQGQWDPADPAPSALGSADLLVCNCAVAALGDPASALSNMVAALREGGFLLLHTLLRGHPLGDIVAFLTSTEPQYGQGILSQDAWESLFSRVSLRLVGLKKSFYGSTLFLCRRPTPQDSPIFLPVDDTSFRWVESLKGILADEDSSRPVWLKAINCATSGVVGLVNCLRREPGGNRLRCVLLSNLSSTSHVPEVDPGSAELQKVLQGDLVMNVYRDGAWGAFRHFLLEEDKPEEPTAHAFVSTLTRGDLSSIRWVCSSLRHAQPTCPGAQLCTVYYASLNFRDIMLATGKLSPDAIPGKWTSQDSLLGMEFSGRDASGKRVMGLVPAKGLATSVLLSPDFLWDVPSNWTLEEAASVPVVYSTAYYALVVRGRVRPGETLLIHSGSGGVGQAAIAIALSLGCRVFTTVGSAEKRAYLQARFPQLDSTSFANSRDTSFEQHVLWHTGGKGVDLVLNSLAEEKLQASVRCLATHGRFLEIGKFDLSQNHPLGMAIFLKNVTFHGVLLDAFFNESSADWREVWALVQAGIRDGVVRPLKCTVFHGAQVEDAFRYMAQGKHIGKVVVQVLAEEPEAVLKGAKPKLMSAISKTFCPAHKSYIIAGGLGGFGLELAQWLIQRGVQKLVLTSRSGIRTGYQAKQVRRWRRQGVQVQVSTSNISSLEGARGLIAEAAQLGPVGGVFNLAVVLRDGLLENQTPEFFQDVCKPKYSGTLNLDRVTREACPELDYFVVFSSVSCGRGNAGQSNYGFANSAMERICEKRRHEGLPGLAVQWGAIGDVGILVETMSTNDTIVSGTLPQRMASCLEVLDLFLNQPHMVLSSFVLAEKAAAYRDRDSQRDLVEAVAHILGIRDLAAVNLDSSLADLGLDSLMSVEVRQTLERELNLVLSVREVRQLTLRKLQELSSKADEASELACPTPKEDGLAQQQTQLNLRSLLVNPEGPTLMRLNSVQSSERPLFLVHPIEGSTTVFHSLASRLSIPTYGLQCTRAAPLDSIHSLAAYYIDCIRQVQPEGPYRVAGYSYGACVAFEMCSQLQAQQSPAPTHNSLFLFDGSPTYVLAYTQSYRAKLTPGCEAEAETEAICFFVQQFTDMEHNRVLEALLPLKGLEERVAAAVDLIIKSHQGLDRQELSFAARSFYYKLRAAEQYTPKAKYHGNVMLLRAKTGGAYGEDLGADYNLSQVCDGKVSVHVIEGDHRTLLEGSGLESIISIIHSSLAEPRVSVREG

Fatty acid synthase [6] = target: T1, Fatty acid synthase; assay: FAS thioesterase domain inhibitors, dose response, biochemical, endpoint fluorescence intensity, uHTS hits (AID 624327); type: functional;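 also: fluorescence from hydrolysis of an O-methyl fluorescein acyl ester substrate by the enzyme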
[7] = target: T2, Heat shock factor protein 1 (Mus musculus, UniProt P38532); assay: HSF1 potentiators in luciferase reporter cells, confirmation, cell-based, NIH3T3, luminescence, dose retest (AID 435004); type: functional;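 also: stress induced by proteasome inhibitor MG132 added 30 min after compound; luciferase reporter driven by HSF1 response element in NIH3T3 cells; actives raise luminescence as potentiators of the MG132 stress response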
T2 sequence (P38532 whole entry): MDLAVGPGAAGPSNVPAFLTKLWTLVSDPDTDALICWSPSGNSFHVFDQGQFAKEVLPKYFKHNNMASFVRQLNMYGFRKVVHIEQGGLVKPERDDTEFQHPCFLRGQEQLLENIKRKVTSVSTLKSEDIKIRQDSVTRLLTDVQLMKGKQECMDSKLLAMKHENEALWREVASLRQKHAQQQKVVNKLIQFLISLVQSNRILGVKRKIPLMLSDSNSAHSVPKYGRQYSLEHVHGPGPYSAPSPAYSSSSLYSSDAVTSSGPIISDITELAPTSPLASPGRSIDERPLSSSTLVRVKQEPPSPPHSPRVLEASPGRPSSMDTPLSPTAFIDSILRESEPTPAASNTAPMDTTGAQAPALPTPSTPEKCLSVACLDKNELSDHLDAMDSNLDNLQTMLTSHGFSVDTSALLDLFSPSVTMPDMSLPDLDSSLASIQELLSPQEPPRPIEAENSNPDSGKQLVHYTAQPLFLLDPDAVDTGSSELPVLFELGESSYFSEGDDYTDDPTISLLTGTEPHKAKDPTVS

[8] = target: Heat shock protein HSP 90-alpha (Homo sapiens, UniProt P07900); type: functional, organism-based
Estrogen receptor = target: T3, Estrogen receptor (Homo sapiens, UniProt P03372);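 also: potency for inhibiting coactivator peptide recruitment to the receptor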
T3 sequence (P03372 whole entry): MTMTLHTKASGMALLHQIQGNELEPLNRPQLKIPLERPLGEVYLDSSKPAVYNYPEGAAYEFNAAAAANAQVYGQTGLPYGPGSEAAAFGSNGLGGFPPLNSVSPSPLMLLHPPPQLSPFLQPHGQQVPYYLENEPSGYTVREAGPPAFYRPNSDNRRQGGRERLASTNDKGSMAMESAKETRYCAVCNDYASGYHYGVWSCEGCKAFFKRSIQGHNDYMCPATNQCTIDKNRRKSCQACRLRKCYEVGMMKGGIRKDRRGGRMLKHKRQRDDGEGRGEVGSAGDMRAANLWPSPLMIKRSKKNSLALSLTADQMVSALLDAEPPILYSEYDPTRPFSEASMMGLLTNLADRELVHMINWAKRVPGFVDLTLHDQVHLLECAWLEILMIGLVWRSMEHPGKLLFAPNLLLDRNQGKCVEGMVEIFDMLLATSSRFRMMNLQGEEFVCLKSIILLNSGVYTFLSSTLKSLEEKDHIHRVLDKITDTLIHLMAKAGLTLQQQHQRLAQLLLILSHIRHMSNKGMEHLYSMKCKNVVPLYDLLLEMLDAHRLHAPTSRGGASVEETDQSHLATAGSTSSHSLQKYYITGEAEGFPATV

Genome polyprotein = Genome polyprotein (dengue virus type 2, UniProt P29990); assay: Dengue-2 NS5 methyltransferase inhibitors, primary screen, biochemical, confirmation dose response (AID 588689); type: functional
Genome polyprotein, sequence (P29990 2492-3391 limits assumed): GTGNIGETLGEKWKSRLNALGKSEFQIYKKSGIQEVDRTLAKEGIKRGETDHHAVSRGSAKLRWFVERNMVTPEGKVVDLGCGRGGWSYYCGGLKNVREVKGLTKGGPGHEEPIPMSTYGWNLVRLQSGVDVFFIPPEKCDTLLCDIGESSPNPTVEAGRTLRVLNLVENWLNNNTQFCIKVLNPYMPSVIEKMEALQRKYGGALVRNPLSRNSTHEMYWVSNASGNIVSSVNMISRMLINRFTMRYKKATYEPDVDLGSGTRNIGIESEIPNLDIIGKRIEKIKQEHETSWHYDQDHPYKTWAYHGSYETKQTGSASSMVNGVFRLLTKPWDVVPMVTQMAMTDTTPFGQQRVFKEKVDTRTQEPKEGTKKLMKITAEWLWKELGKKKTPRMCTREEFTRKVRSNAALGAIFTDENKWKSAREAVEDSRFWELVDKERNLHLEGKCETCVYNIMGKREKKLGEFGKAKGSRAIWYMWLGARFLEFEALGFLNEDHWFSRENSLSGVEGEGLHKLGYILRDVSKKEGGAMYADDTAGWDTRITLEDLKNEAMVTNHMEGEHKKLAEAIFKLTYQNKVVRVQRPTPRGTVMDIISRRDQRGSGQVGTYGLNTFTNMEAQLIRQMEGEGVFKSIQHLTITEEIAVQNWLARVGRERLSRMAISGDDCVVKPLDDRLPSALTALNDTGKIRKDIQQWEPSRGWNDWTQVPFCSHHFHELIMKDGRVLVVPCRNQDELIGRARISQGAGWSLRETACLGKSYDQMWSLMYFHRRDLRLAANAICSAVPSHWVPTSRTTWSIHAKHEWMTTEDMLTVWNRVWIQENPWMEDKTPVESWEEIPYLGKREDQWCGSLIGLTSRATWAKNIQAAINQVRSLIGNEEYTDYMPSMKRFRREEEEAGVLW

[9] = target: T4, High affinity choline transporter 1 (Homo sapiens, UniProt Q9GZV3); assay: CHT inhibitors, dose response, cell-based, 5-point CRC, membrane potential dye (AID 504840); type: functional
T4 sequence (Q9GZV3 whole entry): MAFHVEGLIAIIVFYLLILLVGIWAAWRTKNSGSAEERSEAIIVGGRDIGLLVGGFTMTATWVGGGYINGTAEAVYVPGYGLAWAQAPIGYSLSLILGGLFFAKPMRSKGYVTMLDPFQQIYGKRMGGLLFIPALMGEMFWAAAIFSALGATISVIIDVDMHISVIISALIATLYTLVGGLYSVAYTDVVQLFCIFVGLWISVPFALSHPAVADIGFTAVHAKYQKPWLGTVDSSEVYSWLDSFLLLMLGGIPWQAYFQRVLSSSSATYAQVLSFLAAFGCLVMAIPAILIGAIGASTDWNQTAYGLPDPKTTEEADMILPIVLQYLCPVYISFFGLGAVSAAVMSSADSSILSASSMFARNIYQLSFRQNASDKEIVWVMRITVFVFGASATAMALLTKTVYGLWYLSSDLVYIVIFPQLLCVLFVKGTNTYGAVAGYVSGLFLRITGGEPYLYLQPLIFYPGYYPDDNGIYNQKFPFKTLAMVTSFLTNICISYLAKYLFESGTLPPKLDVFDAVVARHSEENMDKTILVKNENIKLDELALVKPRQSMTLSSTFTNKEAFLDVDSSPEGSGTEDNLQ

[10] = inhibitors of SNCA 5'UTR-driven reporter translation, confirmation, H4 neuroglioma cells, luminescence (AID 1988); type: functional, cell-based
[11] = target: Induced myeloid leukemia cell differentiation protein Mcl-1 (Homo sapiens, UniProt Q07820); type: functional
Induced myeloid leukemia cell differentiation protein Mcl-1, sequence (Q07820 whole entry): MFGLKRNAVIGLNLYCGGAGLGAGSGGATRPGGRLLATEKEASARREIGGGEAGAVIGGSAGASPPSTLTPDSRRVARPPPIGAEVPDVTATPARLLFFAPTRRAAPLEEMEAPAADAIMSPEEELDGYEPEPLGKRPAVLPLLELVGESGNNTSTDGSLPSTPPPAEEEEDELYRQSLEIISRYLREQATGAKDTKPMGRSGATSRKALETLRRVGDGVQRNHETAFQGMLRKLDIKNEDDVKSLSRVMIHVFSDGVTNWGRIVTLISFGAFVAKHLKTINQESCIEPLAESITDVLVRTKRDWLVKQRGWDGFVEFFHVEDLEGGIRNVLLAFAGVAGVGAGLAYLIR

Large T antigen = Large T antigen (Simian virus 40, UniProt P03070); type: functional, Betapolyomavirus macacae;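 also: Confirmatory-stage PubChem screen for compounds that inhibit SV40 T antigen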
Large T antigen, sequence (P03070 whole entry): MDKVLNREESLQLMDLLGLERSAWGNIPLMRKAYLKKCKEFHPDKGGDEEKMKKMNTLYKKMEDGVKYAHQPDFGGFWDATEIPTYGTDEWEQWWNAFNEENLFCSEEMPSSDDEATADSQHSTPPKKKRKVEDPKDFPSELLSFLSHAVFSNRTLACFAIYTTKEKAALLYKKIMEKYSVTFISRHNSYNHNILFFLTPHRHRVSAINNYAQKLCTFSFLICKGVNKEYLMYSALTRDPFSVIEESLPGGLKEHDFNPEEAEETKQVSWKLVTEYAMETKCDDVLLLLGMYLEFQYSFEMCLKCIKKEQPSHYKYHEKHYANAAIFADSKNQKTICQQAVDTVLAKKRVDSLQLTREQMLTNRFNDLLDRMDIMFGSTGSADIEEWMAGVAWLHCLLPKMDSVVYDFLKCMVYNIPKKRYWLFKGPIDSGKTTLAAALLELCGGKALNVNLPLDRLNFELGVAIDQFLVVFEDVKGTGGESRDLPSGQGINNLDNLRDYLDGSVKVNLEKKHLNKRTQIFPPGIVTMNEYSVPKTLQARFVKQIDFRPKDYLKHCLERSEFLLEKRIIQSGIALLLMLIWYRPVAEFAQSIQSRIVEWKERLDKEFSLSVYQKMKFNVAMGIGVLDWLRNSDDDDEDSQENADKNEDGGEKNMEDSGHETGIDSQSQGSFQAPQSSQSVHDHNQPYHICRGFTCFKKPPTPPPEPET

[12] = Luminescence Cell-Based Dose Response HTS to Identify Inhibitors of 5'UTR Stem-Loop Driven Prion Protein mRNA Translation in H4 Neuroglioblastoma Cells. [Related pubchem assays: 1827 (Project Summary), 1813 (Primary HTS)]; type: functional
[13] = inhibitors of firefly luciferase expression or activity, dose response, H4 neuroglioma cells, luminescence (AID 1990); type: functional, cell-based

SMILES: COc1ccc(S(=O)(=O)N(C)C[C@H]2Oc3ccc(NC(=O)Nc4cccc5ccccc45)cc3C(=O)N([C@@H](C)CO)C[C@H]2C)cc1
- AC50 [1]: 4.38 µM (active)

SMILES: Cc1cccc(C)c1NC(=O)CN(C)C(=O)c1cccc(S(=O)(=O)N2CCN(c3ccc(F)cc3)CC2)c1
- AC50 [2]: > 70 µM (inactive)
- AC50 [3]: 2.2 µM (active)
- AC50 [4]: 13 µM (active)

SMILES: O=S(=O)(c1ccc(Cl)cc1)N1CCN(c2ncnc3sccc23)CC1
- AC50 [2]: 32.2 µM (active)
- AC50 [3]: 3.04 µM (active)
- AC50 (INS1): 5.44 µM (active)
- AC50 [4]: 5.25 µM (active)

SMILES: O=C(/C=C/c1cccc([N+](=O)[O-])c1)NCc1ccc2c(c1)OCO2
- IC50 (Fatty acid synthase [5]): 2.72 µM (active)
- IC50 (Fatty acid synthase [6]): 2.33 µM (active)

SMILES: COc1ccccc1NS(=O)(=O)c1cc(C(=O)N2CC(C)CC(C)C2)ccc1C (configuration not stated)
- EC50 [7]: > 260 µM (inactive)
- AC50 [8]: 5.54 µM (active)

SMILES: COc1ccc(CNC(=O)c2cc(-c3cccs3)on2)cc1
- IC50 (Estrogen receptor): 27.7 µM (active)

SMILES: C[C@@H]1CN([C@H](C)CO)C(=O)Cc2cc(NC(=O)Nc3ccc4c(c3)OCO4)ccc2O[C@H]1CN(C)CC1CCCCC1
- AC50 [1]: 7 µM (active)

SMILES: CSc1nc(O)c(C(c2ccc(O)cc2)c2c(O)nc(SC)nc2O)c(O)n1
- IC50 (Genome polyprotein): 46.7 µM (active)

SMILES: COc1ccc(NS(=O)(=O)c2ccc(C(=O)N3CCCCCC3)cc2)cc1
- AC50 [2]: 48.4 µM (active)
- AC50 [3]: 4.51 µM (active)
- AC50 [4]: 9.07 µM (active)

SMILES: Cc1cc([N+](=O)[O-])c(NCCCCCCO)c([N+](=O)[O-])c1
- IC50 [9]: 12.6 µM (active)

SMILES: CCC(C)c1ccc(NC(S)=NCc2ccccn2)cc1 (configuration not stated)
- IC50 [9]: 13.2 µM (active)

SMILES: C=CCOC(=O)C1=C(C)N=c2s/c(=C3\C(=O)N(CC(=O)O)c4ccccc43)c(=O)n2C1c1ccc(OC)cc1 (configuration not stated)
- EC50 [10]: 74 µM (active)
- IC50 (Genome polyprotein): 59.4 µM (active)
- IC50 [11]: 3 µM (active)
- IC50 (Large T antigen): 49.1 µM (active)
- EC50 [12]: > 120 µM (not active)
- EC50 [13]: > 120 µM (not active)

SMILES: CC(C)COc1ccc(C(=O)N/C(=C/c2cccc([N+](=O)[O-])c2)C(=O)O)cc1
- IC50 (Fatty acid synthase [5]): 9.3 µM (active)
- IC50 (Fatty acid synthase [6]): 14.2 µM (active)

SMILES: O[C@H]1C[C@H](c2ccc(Cl)cc2)N(CC2CCCCC2)C[C@@H]1n1cc(C2CC2)nn1
- IC50 (Fatty acid synthase [5]): 13.1 µM (active)
- IC50 (Fatty acid synthase [6]): 12 µM (active)

SMILES: C[C@@H]1CN([C@H](C)CO)C(=O)Cc2cc(NS(=O)(=O)c3ccc(Cl)cc3)ccc2O[C@@H]1CN(C)Cc1ccc(-c2ccccc2)cc1
- AC50 [1]: 2.76 µM (active)

SMILES: Cc1[nH]n(-c2ccccc2)c(=O)c1N=Nc1ccccc1C(=O)O
- IC50 (Genome polyprotein): 58 µM (active)

SMILES: COCCCNC(=O)c1ccc2c(=O)n(Cc3ccc4c(c3)OCO4)c(=S)[nH]c2c1
- IC50 (Estrogen receptor): 42 µM (not active)

SMILES: C[C@@H]1CCCCO[C@@H](CN(C)Cc2ccc(C(=O)Nc3ccccc3N)cc2)[C@@H](C)CN([C@H](C)CO)C(=O)c2cc(NS(=O)(=O)c3ccc(Cl)cc3)ccc2O1
- AC50 [1]: 3.39 µM (active)

SMILES: C[C@@H]1CCCCO[C@@H](CN(C)Cc2ccc(Cl)c(Cl)c2)[C@@H](C)CN([C@H](C)CO)C(=O)c2cc(NC(=O)Cc3ccccc3)ccc2O1
- AC50 [1]: 4.04 µM (active)

SMILES: C[C@H](CO)N1C[C@H](C)[C@@H](CN(C)Cc2ccc(-c3ccccc3)cc2)Oc2c(NC(=O)c3ccncc3)cccc2C1=O
- AC50 [1]: 0.08 µM (active)

SMILES: Cc1ccc(-n2nnnc2SCC(=O)Nc2cccc(NC(=O)c3ccco3)c2)cc1C
- IC50 (Estrogen receptor): 14.9 µM (active)

SMILES: COc1ccc(-c2nnn(CC(=O)Nc3ccc4c(c3)OCCO4)n2)cc1OC
- AC50 [2]: > 70 µM (inactive)
- AC50 [4]: 21.2 µM (active)

SMILES: COc1cccc(C2CC(c3ccc(C)cc3)=NN2C(=O)c2ccccc2F)c1OC (configuration not stated)
- AC50 [3]: 36 µM (active)
- AC50 [4]: 30.4 µM (active)

SMILES: CC(C)CCNc1nc(N)c([N+](=O)[O-])c(N2CCCCCC2)n1
- AC50 [2]: 47.5 µM (active)
- AC50 [3]: 8.79 µM (active)
- AC50 [4]: 5.43 µM (active)

SMILES: F[B-](F)(F)c1cc2cc(Br)ccc2s1
- AC50 [8]: 4.02 µM (active)

SMILES: O=c1oc(-c2ccccc2F)nc2scc(-c3ccccc3)c12
- IC50 (Fatty acid synthase [5]): 0.638 µM (active)
- IC50 (Fatty acid synthase [6]): 1.19 µM (active)

SMILES: O=C(Cn1c(=O)n(Cc2ccco2)c(=O)c2c3c(sc21)CCCCC3)c1ccccc1
- IC50 (Estrogen receptor): > 50 µM (not active)

SMILES: C[C@@H]1CCCCO[C@H](CN(C)C(=O)Nc2ccc(C(F)(F)F)cc2)[C@@H](C)CN([C@H](C)CO)C(=O)c2cc(NC(=O)CCC(F)(F)F)ccc2O1
- AC50 [1]: 3.67 µM (active)

SMILES: CCCCSc1nnc2c(n1)[nH]c1ccccc12
- IC50 (Estrogen receptor): > 50 µM (not active)

SMILES: C[C@@H]1CN([C@@H](C)CO)C(=O)c2cccc(NC(=O)c3nc4ccccc4s3)c2O[C@@H]1CN(C)Cc1ccccc1
- AC50 [1]: 4.84 µM (active)

SMILES: CCn1c(SCC(=O)Nc2ccc(NC(=O)c3ccco3)c(OC)c2)nc2ccccc2c1=O
- IC50 (Estrogen receptor): 35.8 µM (not active)
